Test results from patent US11076595B2, “1-(n,n-disubstituted carbamoyl) 4-(substituted sulfonyl)triazolin-5-one derivative, 4-(n,n-disubstituted carbamoyl) 1-(substituted sulfonyl)triazolin-5-one derivative, and herbicide containing said derivative as active ingredient” (HOKKO CHEMICAL INDUSTRY CO., LTD., priority 2017, dated 2021).

Assays:
Type in all cases: in vivo
Echinochloa crus-galli [1] = experiment: Test Example 1: herbicidal effect test by soil treatment in paddy field; conditions: 120 g/10a, paddy soil treatment just after sowing, 14 days after treatment
Excerpt: (§1) A Wagner pot having an area of 1/10000 are was filled with paddy field soil and after adding water, a chemical fertilizer (N:P:K=17:17:17) was mixed, followed by puddling. Thereafter, 30 grains of each of Echinochloa crus-galli, broad-leaved weed (Lindernia pyxidaria and Monochoria vaginalis) and Scirpus juncoides seeds were sown to a depth of 0 to 1 cm. Immediately after the sowing, the pot was flooded, and the depth of water was kept at about 3 cm. The pot was subsequently managed in a glass greenhouse. Just after that, an emulsifiable concentrate prepared according to Formulation Example 5 by using the compound shown in Table 5 below was diluted with water, and a predetermined amount of the water-diluted formulation was added dropwise. The application rate of the active ingredient, by conversion, corresponded to 120 g per 10 are.
(§2) This test was performed with two replications per one formulation concentration plot, and 14 days after the formulation treatments, the weed suppression rate (%) was determined according to the following equation (Math. 1). Weed suppression rate (%)=(1−an average dry weight (g) of plants in treated plots/an average dry weight (g) of plants in untreated plots)×100 [Math. 1]

Lindernia pyxidaria [2] = experiment: as above; conditions: 120 g/10a, paddy soil treatment just after sowing, 14 days after treatment
Excerpt: as §1, §2

Monochoria vaginalis [3] = experiment: as above; conditions: 120 g/10a, paddy soil treatment just after sowing, 14 days after treatment
Excerpt: as §1, §2

Scirpus juncoides [4] = experiment: as above; conditions: 120 g/10a, paddy soil treatment just after sowing, 14 days after treatment
Excerpt: as §1, §2

Echinochloa crus-galli [5] = experiment: Test Example 2: herbicidal effect test by treatment during growing period in paddy field; conditions: treatment 7 days after sowing, 120 g/10a, evaluated 14 days after treatment
Procedure: as §2
as §1, with “greenhouse. Seven days” for “greenhouse. Just”, “after sowing,” for “after that,”, “Table 6” for “Table 5”, “are. The test was performed with two replications per one formulation concentration plot, and 14 days after the formulation treatments, the weed suppression rate (%) was determined according to the equation (Math. 1).” for “are.”

Lindernia pyxidaria [6] = experiment: as above; conditions: treatment 7 days after sowing, 120 g/10a, evaluated 14 days after treatment
Procedure: as §2
as §1, with “greenhouse. Seven days” for “greenhouse. Just”, “after sowing,” for “after that,”, “Table 6” for “Table 5”, “are. The test was performed with two replications per one formulation concentration plot, and 14 days after the formulation treatments, the weed suppression rate (%) was determined according to the equation (Math. 1).” for “are.”

Monochoria vaginalis [7] = experiment: as above; conditions: treatment 7 days after sowing, 120 g/10a, evaluated 14 days after treatment
Procedure: as §2
as §1, with “greenhouse. Seven days” for “greenhouse. Just”, “after sowing,” for “after that,”, “Table 6” for “Table 5”, “are. The test was performed with two replications per one formulation concentration plot, and 14 days after the formulation treatments, the weed suppression rate (%) was determined according to the equation (Math. 1).” for “are.”

Scirpus juncoides [8] = experiment: as above; conditions: treatment 7 days after sowing, 120 g/10a, evaluated 14 days after treatment
Procedure: as §2
as §1, with “greenhouse. Seven days” for “greenhouse. Just”, “after sowing,” for “after that,”, “Table 6” for “Table 5”, “are. The test was performed with two replications per one formulation concentration plot, and 14 days after the formulation treatments, the weed suppression rate (%) was determined according to the equation (Math. 1).” for “are.”

Amaranthus viridis = experiment: Test Example 4: herbicidal effect test by foliage treatment in upland field; conditions: upland field foliage treatment 7 days after sowing; 120 g/10a; evaluated 14 days after treatment
Procedure: as §2
(§3) A pot having a size of 36 cm^2 was filled with field soil (alluvial soil) and after uniformly mixing the soil of the surface layer of 1 cm with 20 grains of each weed seed of crabgrass, Echinochloa crus-galli, Chenopodium album and Amaranthus viridis, the surface layer was pressed lightly. Seven days after the sowing, an emulsifiable concentrate prepared according to Formulation Example 5 by using the compound shown in Table 8 below was diluted with water, and the water-diluted formulation was sprayed on the soil surface at a ratio of 100 liter per 10 are. The application rate of the active ingredient, by conversion, corresponded to 120 g per 10 are. Fourteen days after the formulation treatment, the herbicidal effect was evaluated by the same criteria as in Test Example 1.

Chenopodium album = experiment: as above; conditions: upland field foliage treatment 7 days after sowing; 120 g/10a; evaluated 14 days after treatment
Procedure: as §2, §3

Echinochloa crus-galli [9] = experiment: as above; conditions: upland field foliage treatment 7 days after sowing; 120 g/10a; evaluated 14 days after treatment
Procedure: as §2, §3

crabgrass = experiment: as above; conditions: upland field foliage treatment 7 days after sowing; 120 g/10a; evaluated 14 days after treatment
Procedure: as §2, §3

Compound	weed suppression rate, Echinochloa crus-galli (Echinochloa crus-galli [1]) [%]	weed suppression rate, Lindemia pyxidaria (Lindernia pyxidaria [2]) [%]	weed suppression rate, Monochoria vaginalis (Monochoria vaginalis [3]) [%]	weed suppression rate, Scirpus juncoides (Scirpus juncoides [4]) [%]	weed suppression rate, Echinochloa crus-galli (Echinochloa crus-galli [5]) [%]	weed suppression rate, Lindemia pyxidaria (Lindernia pyxidaria [6]) [%]	weed suppression rate, Monochoria vaginalis (Monochoria vaginalis [7]) [%]	weed suppression rate, Scirpus juncoides (Scirpus juncoides [8]) [%]	herbicidal effect (weed suppression rate), Amaranthus viridis (Amaranthus viridis) [%]	herbicidal effect (weed suppression rate), Chenopodium album (Chenopodium album) [%]	herbicidal effect (weed suppression rate), Echinochloa crus-galli (Echinochloa crus-galli [9]) [%]	herbicidal effect (weed suppression rate), Crabgrass (crabgrass) [%]
CC(C)N(C(=O)n1ncn(S(=O)(=O)C2CC2)c1=O)c1ccc(C(F)(F)F)cc1F [Compound 1-226]	100	100	100	100	100	80	100	90	90	80	100	100
CC(C)N(C(=O)n1ncn(S(=O)(=O)C2CCCCC2)c1=O)c1c(F)c(F)cc(F)c1F [Compound 1-311]	100	100	100	100	100	80	100	90	0	60	100	100
CC(C)N(C(=O)n1ncn(S(=O)(=O)N(C)C)c1=O)c1ccc(Cl)nc1Cl [Compound 1-1136]	100	90	90	90	100	90	80	90	90	80	80	90
Cc1cc(N(C(=O)n2ncn(S(=O)(=O)C(C)C)c2=O)C(C)C)no1 [Compound 1-99]	60	80	90	50	90	80	80	90	90	80	80	90
CC(C)N(C(=O)n1ncn(S(=O)(=O)C2CC2)c1=O)c1c(F)cc(F)cc1F [Compound 1-204]	100	100	80	100	100	80	100	100	80	60	100	100
Cc1ccc(N(C(=O)n2ncn(S(=O)(=O)C3CC3)c2=O)C(C)C)c(Cl)c1 [Compound 1-223]	100	80	80	90	90	80	80	90				
Cc1ccc(N(C(=O)n2ncn(S(=O)(=O)C3CCCCC3)c2=O)C(C)C)c(Cl)c1 [Compound 1-322]	90	90	90	90	90	80	80	90				
Cc1ccc(S(=O)(=O)n2cnn(C(=O)N(c3ccc(Cl)nc3Cl)C(C)C)c2=O)cc1 [Compound 1-690]	100	100	90	90	100	90	90	90				
CC(C)N(C(=O)n1ncn(S(=O)(=O)C2CC2)c1=O)c1ccc(Cl)cc1Br [Compound 1-219]	100	100	100	100	100	90	90	100				
CC(C)N(C(=O)n1ncn(S(=O)(=O)C2CCCCC2)c1=O)c1ccc(C(F)(F)F)cc1F [Compound 1-323]	100	100	80	100	100	70	70	70				
Cc1cc(C)c(S(=O)(=O)n2cnn(C(=O)N(c3cccnc3F)C(C)C)c2=O)c(C)c1 [Compound 1-921]	90	80	60	70	80	80	60	70				
CC(C)N(Cc1ccc(F)cc1F)C(=O)n1ncn(S(=O)(=O)C2CC2)c1=O [Compound 1-238]	90	80	80	90	90	80	90	90				
CC(C)N(C(=O)n1ncn(S(=O)(=O)C2CCCCC2)c1=O)c1ccc(Cl)nc1 [Compound 1-338]	100	90	90	100	90	80	80	90				
Cc1cc(N(C(=O)n2ncn(S(=O)(=O)C3CC3)c2=O)C(C)C)no1 [Compound 1-250]	90	80	80	90	90	90	90	80				
